Assay results published in paper PMC9851200, “Multiparameter phenotypic screening for endogenous TFEB and TFE3 translocation identifies novel chemical series modulating lysosome function” (Autophagy, 2022).

How the values were obtained:
Type in all cases: binding
[1] = target: T1, kinases (KINOMEscan panel) (Homo sapiens, UniProt O15530); settings: NEW KINOMEscan
T1 sequence (O15530 1-556): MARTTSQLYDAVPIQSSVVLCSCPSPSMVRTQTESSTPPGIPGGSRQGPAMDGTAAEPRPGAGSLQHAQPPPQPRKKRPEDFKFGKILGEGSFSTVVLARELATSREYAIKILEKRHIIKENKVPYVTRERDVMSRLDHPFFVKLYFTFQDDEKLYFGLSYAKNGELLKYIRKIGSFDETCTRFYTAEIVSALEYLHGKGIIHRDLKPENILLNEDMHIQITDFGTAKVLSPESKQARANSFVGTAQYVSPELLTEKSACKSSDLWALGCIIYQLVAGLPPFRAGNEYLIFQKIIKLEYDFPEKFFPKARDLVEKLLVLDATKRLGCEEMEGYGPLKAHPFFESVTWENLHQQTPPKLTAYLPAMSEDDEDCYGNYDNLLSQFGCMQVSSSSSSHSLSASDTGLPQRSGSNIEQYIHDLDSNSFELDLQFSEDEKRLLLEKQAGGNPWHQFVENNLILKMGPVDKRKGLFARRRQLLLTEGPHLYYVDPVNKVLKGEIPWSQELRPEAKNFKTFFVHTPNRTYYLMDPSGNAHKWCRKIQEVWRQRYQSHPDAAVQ

[2] = target: kinases (KINOMEscan panel) (Homo sapiens, UniProt O96017); settings: kinase CHEK2; NEW KINOMEscan
kinases (KINOMEscan panel) (Homo sapiens, UniProt O96017), sequence (O96017 whole entry): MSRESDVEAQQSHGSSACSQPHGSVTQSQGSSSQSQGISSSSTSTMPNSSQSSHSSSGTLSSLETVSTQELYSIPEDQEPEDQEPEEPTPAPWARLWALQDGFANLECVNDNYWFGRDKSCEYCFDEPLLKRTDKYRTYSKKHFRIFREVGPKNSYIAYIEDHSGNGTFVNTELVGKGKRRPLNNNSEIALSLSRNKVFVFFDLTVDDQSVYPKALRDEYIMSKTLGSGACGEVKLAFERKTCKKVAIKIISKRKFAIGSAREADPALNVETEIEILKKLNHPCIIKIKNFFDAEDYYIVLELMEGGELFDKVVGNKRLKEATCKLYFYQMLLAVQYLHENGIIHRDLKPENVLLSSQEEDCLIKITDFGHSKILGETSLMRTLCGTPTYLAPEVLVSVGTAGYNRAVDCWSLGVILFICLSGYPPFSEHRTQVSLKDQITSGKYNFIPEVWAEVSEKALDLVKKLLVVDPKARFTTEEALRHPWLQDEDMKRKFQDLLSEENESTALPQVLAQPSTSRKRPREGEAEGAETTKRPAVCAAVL

[3] = target: kinases (KINOMEscan panel) (Homo sapiens, UniProt P04049); settings: RAF1; NEW KINOMEscan
[4] = target: kinases (KINOMEscan panel) (Homo sapiens, UniProt P10721, L576P); settings: KIT(L576P); NEW KINOMEscan
kinases (KINOMEscan panel) (Homo sapiens, UniProt P10721, L576P), sequence (P10721 26-976 L576P): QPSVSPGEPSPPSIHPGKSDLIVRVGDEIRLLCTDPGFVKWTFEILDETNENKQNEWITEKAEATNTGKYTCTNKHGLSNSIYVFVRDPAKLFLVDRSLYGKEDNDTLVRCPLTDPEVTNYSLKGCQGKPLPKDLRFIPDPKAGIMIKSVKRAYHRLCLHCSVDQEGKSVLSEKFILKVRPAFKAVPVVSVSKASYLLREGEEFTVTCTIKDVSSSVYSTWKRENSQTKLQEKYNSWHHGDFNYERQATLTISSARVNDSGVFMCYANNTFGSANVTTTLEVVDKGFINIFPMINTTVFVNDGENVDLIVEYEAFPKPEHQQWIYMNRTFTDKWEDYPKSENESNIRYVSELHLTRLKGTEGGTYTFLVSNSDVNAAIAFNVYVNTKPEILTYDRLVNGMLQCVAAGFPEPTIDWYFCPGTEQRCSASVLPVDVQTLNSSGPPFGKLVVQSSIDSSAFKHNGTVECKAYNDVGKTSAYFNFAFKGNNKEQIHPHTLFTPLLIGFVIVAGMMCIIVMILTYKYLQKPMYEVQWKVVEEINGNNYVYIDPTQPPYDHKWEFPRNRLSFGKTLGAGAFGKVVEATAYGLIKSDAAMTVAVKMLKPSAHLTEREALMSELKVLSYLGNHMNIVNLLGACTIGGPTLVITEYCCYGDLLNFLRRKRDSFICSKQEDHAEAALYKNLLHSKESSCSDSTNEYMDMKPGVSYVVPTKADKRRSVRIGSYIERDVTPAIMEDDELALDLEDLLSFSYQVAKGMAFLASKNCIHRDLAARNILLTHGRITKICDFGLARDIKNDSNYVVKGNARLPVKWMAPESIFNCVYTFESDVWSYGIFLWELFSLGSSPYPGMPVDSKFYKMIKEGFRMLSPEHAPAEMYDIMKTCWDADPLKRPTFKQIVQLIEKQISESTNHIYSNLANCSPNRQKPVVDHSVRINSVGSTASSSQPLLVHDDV

[5] = target: kinases (KINOMEscan panel) (Homo sapiens, UniProt P21802); settings: kinase FGFR2; NEW KINOMEscan
[6] = target: kinases (KINOMEscan panel) (Homo sapiens, UniProt P42336, I800L); settings: kinase PIK3CA(I800L); NEW KINOMEscan
kinases (KINOMEscan panel) (Homo sapiens, UniProt P42336, I800L), sequence (P42336 whole entry I800L): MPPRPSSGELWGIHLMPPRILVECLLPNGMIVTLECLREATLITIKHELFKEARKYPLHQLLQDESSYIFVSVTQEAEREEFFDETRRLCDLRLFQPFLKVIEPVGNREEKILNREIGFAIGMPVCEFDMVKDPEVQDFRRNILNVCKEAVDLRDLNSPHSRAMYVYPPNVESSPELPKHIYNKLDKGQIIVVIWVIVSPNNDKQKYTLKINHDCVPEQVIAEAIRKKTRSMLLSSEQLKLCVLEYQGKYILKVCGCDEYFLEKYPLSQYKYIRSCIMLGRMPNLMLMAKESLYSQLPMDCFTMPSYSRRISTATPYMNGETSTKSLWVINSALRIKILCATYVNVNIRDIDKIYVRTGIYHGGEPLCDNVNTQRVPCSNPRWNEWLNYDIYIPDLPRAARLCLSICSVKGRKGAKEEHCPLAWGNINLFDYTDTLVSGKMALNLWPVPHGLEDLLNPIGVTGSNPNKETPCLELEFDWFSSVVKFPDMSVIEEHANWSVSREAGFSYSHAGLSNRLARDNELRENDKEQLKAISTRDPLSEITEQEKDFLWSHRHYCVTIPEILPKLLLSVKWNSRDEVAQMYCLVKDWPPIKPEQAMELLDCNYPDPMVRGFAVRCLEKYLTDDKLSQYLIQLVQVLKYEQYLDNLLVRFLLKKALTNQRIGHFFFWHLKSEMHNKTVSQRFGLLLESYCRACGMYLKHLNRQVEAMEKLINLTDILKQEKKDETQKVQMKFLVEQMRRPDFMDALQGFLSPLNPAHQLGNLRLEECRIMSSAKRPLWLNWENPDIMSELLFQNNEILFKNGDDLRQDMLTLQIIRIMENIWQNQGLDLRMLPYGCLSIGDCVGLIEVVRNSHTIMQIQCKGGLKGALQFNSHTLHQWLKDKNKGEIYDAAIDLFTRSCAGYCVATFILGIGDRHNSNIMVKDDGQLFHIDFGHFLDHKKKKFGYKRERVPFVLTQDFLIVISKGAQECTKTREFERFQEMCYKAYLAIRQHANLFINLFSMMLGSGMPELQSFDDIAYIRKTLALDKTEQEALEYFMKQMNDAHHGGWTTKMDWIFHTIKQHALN

[7] = target: kinases (KINOMEscan panel) (Homo sapiens, UniProt P42336, Q546K); settings: kinase PIK3CA(Q546K); NEW KINOMEscan
kinases (KINOMEscan panel) (Homo sapiens, UniProt P42336, Q546K), sequence (P42336 whole entry Q546K): as the sequence (P42336 whole entry I800L) above, with Q546K, L800I counted along it

[8] = target: T2, kinases (KINOMEscan panel) (Homo sapiens, UniProt P57078); settings: RIPK4; NEW KINOMEscan
T2 sequence (P57078 1-832): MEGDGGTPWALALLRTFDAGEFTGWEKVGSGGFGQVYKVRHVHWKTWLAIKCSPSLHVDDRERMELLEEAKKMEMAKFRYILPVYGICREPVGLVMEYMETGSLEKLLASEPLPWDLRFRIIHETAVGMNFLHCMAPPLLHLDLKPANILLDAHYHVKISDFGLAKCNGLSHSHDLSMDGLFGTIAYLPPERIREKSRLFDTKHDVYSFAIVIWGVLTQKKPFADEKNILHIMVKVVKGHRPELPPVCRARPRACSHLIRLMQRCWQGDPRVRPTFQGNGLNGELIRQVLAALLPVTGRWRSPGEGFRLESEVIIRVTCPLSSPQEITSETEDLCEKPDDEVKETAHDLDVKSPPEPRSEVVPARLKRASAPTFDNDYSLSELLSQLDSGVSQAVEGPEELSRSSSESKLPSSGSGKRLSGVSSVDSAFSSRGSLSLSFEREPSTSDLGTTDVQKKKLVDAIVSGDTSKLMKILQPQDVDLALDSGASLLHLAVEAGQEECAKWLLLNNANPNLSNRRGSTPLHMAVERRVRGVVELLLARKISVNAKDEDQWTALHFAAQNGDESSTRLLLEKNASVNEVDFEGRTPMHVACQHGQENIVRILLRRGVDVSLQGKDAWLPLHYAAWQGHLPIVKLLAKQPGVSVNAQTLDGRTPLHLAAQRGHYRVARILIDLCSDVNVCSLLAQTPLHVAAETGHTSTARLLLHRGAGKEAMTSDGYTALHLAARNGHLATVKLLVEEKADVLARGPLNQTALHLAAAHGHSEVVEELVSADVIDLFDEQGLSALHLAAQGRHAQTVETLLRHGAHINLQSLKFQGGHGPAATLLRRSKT

[9] = target: kinases (KINOMEscan panel) (Homo sapiens, UniProt Q07912); settings: TNK2; NEW KINOMEscan
[10] = target: kinases (KINOMEscan panel) (Homo sapiens, UniProt Q86Z02); settings: HIPK1; NEW KINOMEscan
kinases (KINOMEscan panel) (Homo sapiens, UniProt Q86Z02), sequence (Q86Z02 whole entry): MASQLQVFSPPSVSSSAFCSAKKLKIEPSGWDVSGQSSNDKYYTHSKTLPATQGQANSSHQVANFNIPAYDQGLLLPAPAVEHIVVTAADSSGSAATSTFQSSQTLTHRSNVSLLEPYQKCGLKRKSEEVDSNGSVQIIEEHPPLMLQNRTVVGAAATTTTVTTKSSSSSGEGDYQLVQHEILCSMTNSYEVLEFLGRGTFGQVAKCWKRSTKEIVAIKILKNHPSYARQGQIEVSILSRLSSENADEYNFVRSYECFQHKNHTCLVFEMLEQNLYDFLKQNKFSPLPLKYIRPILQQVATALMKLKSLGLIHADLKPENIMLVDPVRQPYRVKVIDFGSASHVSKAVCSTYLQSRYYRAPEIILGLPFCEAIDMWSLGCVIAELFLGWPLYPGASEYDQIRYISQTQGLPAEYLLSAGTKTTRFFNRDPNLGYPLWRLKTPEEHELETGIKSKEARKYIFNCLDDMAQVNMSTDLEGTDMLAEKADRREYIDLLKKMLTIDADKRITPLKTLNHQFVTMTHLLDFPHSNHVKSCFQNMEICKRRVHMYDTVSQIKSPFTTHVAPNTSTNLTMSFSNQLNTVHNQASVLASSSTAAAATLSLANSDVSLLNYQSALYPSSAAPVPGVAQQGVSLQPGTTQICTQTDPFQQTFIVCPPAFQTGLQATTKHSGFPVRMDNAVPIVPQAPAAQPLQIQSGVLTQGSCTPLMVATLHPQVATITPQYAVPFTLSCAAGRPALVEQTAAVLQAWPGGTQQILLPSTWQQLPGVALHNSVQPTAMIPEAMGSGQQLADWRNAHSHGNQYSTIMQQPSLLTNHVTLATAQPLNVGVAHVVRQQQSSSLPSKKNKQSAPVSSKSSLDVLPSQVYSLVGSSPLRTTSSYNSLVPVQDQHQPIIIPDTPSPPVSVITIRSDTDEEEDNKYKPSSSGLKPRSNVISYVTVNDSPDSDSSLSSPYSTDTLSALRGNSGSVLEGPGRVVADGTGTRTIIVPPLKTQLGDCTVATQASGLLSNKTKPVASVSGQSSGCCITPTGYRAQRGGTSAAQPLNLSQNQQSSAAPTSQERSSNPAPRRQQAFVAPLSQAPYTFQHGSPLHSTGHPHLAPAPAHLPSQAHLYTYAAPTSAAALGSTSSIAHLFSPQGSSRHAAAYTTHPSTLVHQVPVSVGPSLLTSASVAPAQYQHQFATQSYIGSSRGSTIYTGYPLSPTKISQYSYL

[11] = target: T3, kinases (KINOMEscan panel) (Homo sapiens, UniProt Q8NE63); settings: kinase HIPK4; NEW KINOMEscan
T3 sequence (Q8NE63 1-616): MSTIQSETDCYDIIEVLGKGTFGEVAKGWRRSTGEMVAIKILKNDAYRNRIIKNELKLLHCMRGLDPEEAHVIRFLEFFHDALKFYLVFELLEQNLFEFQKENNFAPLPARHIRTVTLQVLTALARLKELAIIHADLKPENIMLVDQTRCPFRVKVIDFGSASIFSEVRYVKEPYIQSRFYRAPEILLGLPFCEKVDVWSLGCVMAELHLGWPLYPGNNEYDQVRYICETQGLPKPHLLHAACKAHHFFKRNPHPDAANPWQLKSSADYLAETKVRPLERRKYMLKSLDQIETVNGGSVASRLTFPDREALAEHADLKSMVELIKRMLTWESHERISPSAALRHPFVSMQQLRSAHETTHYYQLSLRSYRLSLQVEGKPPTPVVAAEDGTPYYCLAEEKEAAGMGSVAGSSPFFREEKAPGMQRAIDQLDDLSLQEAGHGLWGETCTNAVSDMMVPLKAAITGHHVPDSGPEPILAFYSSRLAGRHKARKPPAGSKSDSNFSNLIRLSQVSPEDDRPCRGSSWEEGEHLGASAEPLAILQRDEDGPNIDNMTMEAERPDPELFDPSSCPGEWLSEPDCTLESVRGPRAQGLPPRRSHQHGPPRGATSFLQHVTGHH

[12] = target: kinases (KINOMEscan panel) (Homo sapiens, UniProt Q9BUB5); settings: NEW KINOMEscan
[13] = target: kinases (KINOMEscan panel) (Homo sapiens, UniProt Q9Y4K4); settings: kinase MAP4K5; NEW KINOMEscan
kinases (KINOMEscan panel) (Homo sapiens, UniProt Q9Y4K4), sequence (Q9Y4K4 whole entry): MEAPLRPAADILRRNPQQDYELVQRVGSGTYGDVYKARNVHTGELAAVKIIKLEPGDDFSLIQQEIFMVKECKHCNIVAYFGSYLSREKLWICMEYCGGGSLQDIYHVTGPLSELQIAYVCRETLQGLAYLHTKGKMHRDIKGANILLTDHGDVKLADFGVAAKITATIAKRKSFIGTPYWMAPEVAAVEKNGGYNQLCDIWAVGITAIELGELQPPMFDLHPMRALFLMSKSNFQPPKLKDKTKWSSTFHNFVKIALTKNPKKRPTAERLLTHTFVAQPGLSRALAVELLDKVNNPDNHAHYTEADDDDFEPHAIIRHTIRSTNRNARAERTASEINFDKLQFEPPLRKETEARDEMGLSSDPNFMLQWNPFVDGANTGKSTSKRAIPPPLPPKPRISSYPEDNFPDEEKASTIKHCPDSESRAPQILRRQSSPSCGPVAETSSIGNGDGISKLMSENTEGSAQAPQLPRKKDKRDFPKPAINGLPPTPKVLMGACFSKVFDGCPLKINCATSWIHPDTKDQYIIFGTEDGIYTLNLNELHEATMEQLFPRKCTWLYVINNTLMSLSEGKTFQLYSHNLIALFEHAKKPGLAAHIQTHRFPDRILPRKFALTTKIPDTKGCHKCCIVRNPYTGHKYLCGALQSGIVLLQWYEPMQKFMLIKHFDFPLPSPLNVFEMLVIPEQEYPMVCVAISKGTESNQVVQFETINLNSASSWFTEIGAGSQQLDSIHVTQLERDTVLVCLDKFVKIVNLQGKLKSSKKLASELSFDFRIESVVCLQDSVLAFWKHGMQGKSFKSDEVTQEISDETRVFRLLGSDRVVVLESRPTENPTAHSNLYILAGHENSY

## Cc1cccc(-c2nc(Nc3ccc4nn(C)cc4c3)c3ccccc3n2)n1 [NK167]
[1]
  KINOMEscan PDPK1: 32
[2]
  KINOMEscan CHEK2: 0
[3]
  KINOMEscan RAF1: 4
[4]
  KINOMEscan KIT(L576P): 3
[5]
  KINOMEscan FGFR2: 0
[6]
  KINOMEscan PIK3CA(I800L): 0
[7]
  KINOMEscan PIK3CA(Q546K): 0
[8]
  KINOMEscan RIPK4: 0
[9]
  KINOMEscan TNK2: 0
[10]
  KINOMEscan HIPK1: 27
[11]
  KINOMEscan HIPK4: 7
[12]
  KINOMEscan MKNK1: 0
[13]
  KINOMEscan MAP4K5: 0

## Cc1cccc(-c2nc(N(C)c3ccc4ncsc4c3)c3ccccc3n2)n1 [NK-161]
[1]
  KINOMEscan PDPK1: 29
[2]
  KINOMEscan CHEK2: 0
[3]
  KINOMEscan RAF1: 0
[4]
  KINOMEscan KIT(L576P): 0
[5]
  KINOMEscan FGFR2: 9
[6]
  KINOMEscan PIK3CA(I800L): 0
[7]
  KINOMEscan PIK3CA(Q546K): 7
[8]
  KINOMEscan RIPK4: 0
[9]
  KINOMEscan TNK2: 0
[10]
  KINOMEscan HIPK1: 5
[11]
  KINOMEscan HIPK4: 25
[12]
  KINOMEscan MKNK1: 7
[13]
  KINOMEscan MAP4K5: 0
